The nature of one series: Solubility in water. It counts as physicochemical. How it is done:
30 g (0.1 mol) of sodium 9-cis-retinoate was dissolved in 100 ml of acetonitrile. 26.1 g (0.1 mol) of 2-Bromo-N,N-diethylethylamine.HBr was added into the reaction mixture. The mixture was stirred for overnight at RT. The solvents were evaporated off. 200 ml of ethanol was added into the residue. The solid was removed by filtration. The solution was evaporated to dryness. 100 ml of ethyl acetate was added into the reaction mixture. Hexane (100 ml) was added. The solid product was collected by filtration. After drying, it yielded 36 g of the desired product (75%).

Series [1] is described as follows: Fluorescence microscopy of HPC crossing rat skin, brain and other organs. The settings on record: 15 minutes after 30 mg in 0.5 ml ethanol on back of rats. It counts as in vivo. As for the experimental part: For fluorescence microscopy studies, 30 mg of 5-(dimethylamino)naphthalene-1-sulfonic acid or its HPC, N-2-diethylaminoethyl 5-dimethylamino-1-naphthalenesulfonamide.HCl salt was dissolved in 0.5 ml of 75% ethanol and applied to the shaved back of rats (3×3 cm). 15 minutes or 3 hours later, the rat was killed and organs were taken out and frozen. The frozen tissues (brain, liver, and muscle) were sliced and stained with Haematoxylin and eosin (H&E) staining. Results were shown picture 1-9 in FIG. 9.

Series [2] in a line: Distribution in organs of rabbits after transdermal HPC of ibuprofen. It counts as in vivo. The settings on record: for distribution in brain / distribution in cartilage pads / distribution in heart / distribution in prostate gland / distribution in testis: 2 hr after 0.3 mol/kg HPC of ibuprofen (10% aqueous) on shaved back; for distribution in Myelin: 2 hr after HPC of ibuprofen (10% aqueous) on shaved back.
Text: (§1) A HPC changed quickly to its parent drug in vivo, so the concentration was the concentration of its parent drug or related compound.

A short description of series [3]: Amount of ibuprofen in rat plasma and brain, 0.3 mmol/kg. How it is done:
The plasma or brain tissue (the whole brain was washed with pH 7.4 buffer for 3 times) was homogenized immediately in 3-5 ml of methanol, using a tissue tearor at 30,000 rpm (about 2 min.).

A short description of series [4]: Amount of ibuprofen in Beagle dogs synovial fluid, 0.3 mmol/kg. It counts as in vivo.
A short description of series [5]: Amounts of ibuprofen in Beagle dogs cartilage tissue. It is filed as in vivo. The settings on record: 18 hours after administration.
Series [6] has as its system rats given sterilized E. coli suspension as a pyrogen. Briefly: Antipyretic activity of ibuprofen and its HPC (Study A). It is filed as in vivo.
The nature of series [7]: Distribution in organs of rats after transdermal HPC of ibuprofen. Particulars: 2 hr after 0.3 mmol/kg HPC of ibuprofen (10% aqueous) on shaved back.
Text: as §1
Series [8] deals with spontaneously hypertensive rats (SLAC/SHR). Briefly: Anti-hypertensive activity in spontaneously hypertensive rats. It is filed as in vivo. Particulars: 50 mg/kg (10% in water) on back skin once per day. As for the experimental part: 20 spontaneously hypertensive rats (SLAC/SHR, 19 weeks old, 300-350 g) were divided into 2 groups randomly. In group A, pure water (0.5 ml) was applied to the rats' back skin (˜5 cm^2, fur was cut off) once per day for 6 weeks. In groups B, 50 mg/kg of diethylaminoethyl acetylsalicylate citric acid salt (10% in water) was applied to the rats' back skin (˜5 cm^2, fur was cut off) once per day.

The test system of series [9] is Smyth chickens (animal models of vitiligo). Briefly: Anti-vitiligo activity in Smyth chickens. It counts as in vivo. Particulars: 50 mg/kg (5% in pure water) on discoloured lesions once per day for 10 weeks. As for the experimental part: 20 Smyth chickens (animal models of vitiligo) were allocated to 2 groups. Group A (n=10) chickens received 1 ml of pure water on discoloured lesions once per day for 10 weeks. Group B (n=10) Smyth chicken received 50 mg/kg of diethylaminoethyl acetylsalicylate citric acid (5% in pure water) on discoloured lesions once per day for 10 weeks. In the untreated control group A, the lesions were worse and feather loss continued. In the diethylaminoethyl acetylsalicylate citric acid treated group B, the discoloured lesions disappeared and feathers regrew with 3-6 weeks.

For the next series, the system named is mice (aging). Briefly: Lifespan of mice. It is filed as in vivo. How it is done: 60 mice (10 weeks old, 30.3±3.5 g) were divided into groups A and B. In group A (n=30), 0.05 ml of distilled water (˜2 cm^2) was applied to the back of mice once per day. In group B (n=30), […] of diethylaminoethyl acetylsalicylate citric acid (the HPC of aspirin) in 0.05 ml of water (10%) was applied to the back of mice (˜2 cm^2) once per day.

The nature of series [10]: Distribution in milk of sheep after transdermal HPC of ibuprofen. Particulars: female, topical, 2 hr after 0.3 mmol/kg diethylaminoethyl 2-(ρ-isobutylphenyl)propionate.citric acid salt on back, read-out: amount found in the milk. It counts as in vivo.
Text: as §1
Where [11] appears, read: 20 mg/kg, transdermally, t = 0 min.
[12] abbreviates: 20 mg/kg, transdermally, t = 90 min.
The mark [13] stands for this setting: 20 mg/kg, transdermally, t = 180 min.
The mark [14] stands for this setting: 20 mg/kg, transdermally, t = 270 min.
Where [15] appears, read: 50 mg/kg, transdermally, t = 0 min.
[16] abbreviates: 50 mg/kg, transdermally, t = 90 min.
The mark [17] stands for this setting: 50 mg/kg, transdermally, t = 180 min.
The mark [18] stands for this setting: 50 mg/kg, transdermally, t = 270 min.
[19] abbreviates: 100 mg/kg, orally, t = 270 min.
The mark [20] stands for this setting: 100 mg/kg, transdermally, t = 0 min.
The mark [21] stands for this setting: 100 mg/kg, transdermally, t = 90 min.
Setting [22] is: 100 mg/kg, transdermally, t = 180 min.
Where [23] appears, read: 100 mg/kg, transdermally, t = 270 min.

With `Br.CCN(CC)CCOC(=O)/C=C(C)/C=C/C=C(C)\C=C\C1=C(C)CCCC1(C)C` [N,N-diethylaminoethyl 9-cis-retinoate.HBr], in “Solubility in water”, the solubility in water came out at 30 mg/mL.
On to `CCN(CC)CCNS(=O)(=O)c1cccc2c(N(C)C)cccc12.Cl` [N-2-diethylaminoethyl 5-dimethylamino-1-naphthalenesulfonamide.HCl salt], for which the “fluorescence chemical entering brain, muscle, and liver” value in series [1] was “large amount of the fluorescence chemical had entered the brain, muscle, and liver”.
`CCN(CC)CCOC(=O)C(C)c1ccc(CC(C)C)cc1.Cl` (stereo not drawn) [diethylaminoethyl 2-(ρ-isobutylphenyl)propionate.HCl]: the distribution in brain in series [2] is given as 0.4 ± 0.2 nmol/g; in [7], 0.1 ± 0.05 nmol/g. Further, the “distribution in cartilage pads” value in [2] worked out at 0.4 ± 0.2 nmol/g. For the same molecule, the figures for the distribution in heart in series [2] and in [7] were 0.3 ± 0.1 nmol/g and 0.5 ± 0.2 nmol/g, respectively. Besides, the “distribution in prostate gland” value in [2] is reported as 0.5 ± 0.3 nmol/g. The same molecule gave a distribution in testis in series [2] of 0.5 ± 0.3 nmol/g. The “distribution in Myelin” value in [2] is listed as 0.60 ± 0.2 nmol/g. In addition, the “ibuprofen in Plasma (18 hr)” value in series [3] (intramuscularly) came out at 0.5 ± 0.2 nmol/mL; in series [3] (transdermally) it was 2.9 ± 2 nmol/mL. Further, the “ibuprofen in synovial fluid” value in series [4] (intramuscularly, 1 hour) is 28.1 ± 8.1 nmol/g; in series [4] (intramuscularly, 8 hours), 22.1 ± 4.2 nmol/g; in series [4] (intramuscularly, 18 hours), 4.2 ± 1.1 nmol/g; in series [4] (transdermally, 1 hour), 11.6 ± 4.2 nmol/g; in series [4] (transdermally, 8 hours), 28.2 ± 4.7 nmol/g; in series [4] (transdermally, 18 hours), 11.2 ± 3.2 nmol/g. The “Amount of ibuprofen in cartilage tissue” value in series [5] (intramuscularly) is recorded as 17.2 ± 6.1 nmol/g; in [5] (transdermally), 22.5 ± 4.5 nmol/g. In addition, the body temperature in [6] (20 mg/kg, orally, t = 0 min.) was 37.6 ± 0.3; in series [6] (20 mg/kg, orally, t = 90 min.), 37.1 ± 0.3; in [6] (20 mg/kg, orally, t = 180 min.) it was 36.9 ± 0.3; in series [6] (20 mg/kg, orally, t = 270 min.), 36.8 ± 0.2; in [6] (setting [11]), 37.6 ± 0.2; in series [6] (setting [12]) it was 36.7 ± 0.4. For the same molecule, the body temperature in series [6] (setting [13]) came out at 36.6 ± 0.5; in [6] (setting [14]), 36.5 ± 0.3; in series [6] (50 mg/kg, orally, t = 0 min.), 37.6 ± 0.3; in series [6] (50 mg/kg, orally, t = 90 min.), 36.6 ± 0.3; in series [6] (50 mg/kg, orally, t = 180 min.) it was 36.5 ± 0.3; in [6] (50 mg/kg, orally, t = 270 min.), 36.4 ± 0.2. For the same molecule, the body temperature in [6] (setting [15]) turned out to be 37.5 ± 0.4; in series [6] (setting [16]) it was 36.5 ± 0.3; in [6] (setting [17]) it was 36.4 ± 0.3; in series [6] (setting [18]), 36.5 ± 0.2; in series [6] (100 mg/kg, orally, t = 0 min.), 37.5 ± 0.4; in series [6] (100 mg/kg, orally, t = 90 min.), 36.5 ± 0.3. Further, the body temperature in series [6] (100 mg/kg, orally, t = 180 min.) is recorded as 36.4 ± 0.3; in series [6] (setting [19]) it was 36.4 ± 0.2; in series [6] (setting [20]) it was 37.5 ± 0.3; in [6] (setting [21]), 36.5 ± 0.2; in series [6] (setting [22]), 36.4 ± 0.3; in [6] (setting [23]) it was 36.5 ± 0.2. The same molecule yielded a distribution in kidney in [7] of 0.4 ± 0.2 nmol/g. For the same molecule, in [7], the distribution in liver came to 0.2 ± 0.2 nmol/g. Also, in series [7], the distribution in pancreas came to 0.5 ± 0.3 nmol/g. The molecule further returned a distribution in stomach in series [7] of 0.3 ± 0.1 nmol/g.
For the molecule `CCN(CC)CCOC(=O)c1ccccc1OC(C)=O.O=C(O)CC(O)(CC(=O)O)C(=O)O` [diethylaminoethyl acetylsalicylate citric acid salt], in series [8], the “Blood pressure (week 0), Systolic” value came to 184.6 ± 15.1 mmHg; the “Blood pressure (week 0), diastolic” value stood at 118.2 ± 13.1 mmHg; the “Blood pressure (week 2 to week 6), Systolic” value is reported as 115.4 ± 14.6 mmHg; the “Blood pressure (week 2 to week 6), diastolic” value was 83.5 ± 12.1 mmHg. The “time until discoloured lesions disappeared and feathers regrew” value in [9] is 3-6 weeks. In the series on mice (aging) (0.5 mg in 0.05 ml of water on back once per day, n=30), this molecule came in with a Lifespan of 38.2 ± 4.6 month. In addition, the “increase of the lifespan of mice” value in the series with mice (aging) (mouse, in vivo) turned out to be 27%.
`CC(C)Cc1ccc(C(C)C(=O)O)cc1` (stereo not drawn) [ibuprofen, 2-(ρ-isobutylphenyl)propionic acid, reference compound] showed a distribution in brain in series [2] of 5 ± 1 nmol/g. In addition, the “distribution in cartilage pads” value in [2] was found to be 8 ± 2 nmol/g. In series [2], the distribution in heart is listed as 10 ± 5 nmol/g. Besides, in series [2], the “distribution in prostate gland” value is recorded as 18 ± 7 nmol/g. The distribution in testis in series [2] is 11 ± 4 nmol/g. Further, in [2], the “distribution in Myelin” value is reported as 25 ± 8 nmol/g. In addition, in [10], the concentration at 2 h was 30 ± 8 µM. This molecule displayed a concentration at 1 h in series [3] (male, rat, in vivo) of 1430 ± 68 µM. Moreover, in series [3] (male, rat, in vivo), the concentration at 8 h was 313 ± 39 µM. Besides, the “ibuprofen in synovial fluid” value is reported as 3.2 ± 0.3 nmol/g in [4] (intramuscularly, 1 hour) and 0.3 ± 0.1 nmol/g in series [4] (intramuscularly, 8 hours). The body temperature came out at 37.5 ± 0.2 in series [6] (20 mg/kg, orally, t = 0 min.); 37.6 ± 0.3 in [6] (20 mg/kg, orally, t = 90 min.); 37.5 ± 0.3 in series [6] (20 mg/kg, orally, t = 180 min.); 37.4 ± 0.3 in series [6] (20 mg/kg, orally, t = 270 min.); 37.5 ± 0.3 in series [6] (setting [11]); 37.5 ± 0.5 in [6] (setting [12]). Further, the body temperature in [6] (setting [13]) was determined as 37.8 ± 0.4; in series [6] (setting [14]), 37.9 ± 0.3; in series [6] (50 mg/kg, orally, t = 0 min.), 37.5 ± 0.3; in series [6] (50 mg/kg, orally, t = 90 min.), 37.6 ± 0.3; in [6] (50 mg/kg, orally, t = 180 min.) it was 37.2 ± 0.3; in series [6] (50 mg/kg, orally, t = 270 min.), 37.1 ± 0.3. Moreover, the body temperature in series [6] (setting [15]) is 37.6 ± 0.3; in series [6] (setting [16]), 37.8 ± 0.3; in [6] (setting [17]), 37.9 ± 0.3; in series [6] (setting [18]), 38.1 ± 0.3; in series [6] (100 mg/kg, orally, t = 0 min.), 37.5 ± 0.3; in series [6] (100 mg/kg, orally, t = 90 min.), 37.4 ± 0.4. For the same molecule, the body temperature in series [6] (setting [19]) amounted to 36.7 ± 0.3; in series [6] (setting [20]) it was 37.6 ± 0.4; in [6] (setting [21]) it was 37.9 ± 0.4; in series [6] (setting [22]), 37.8 ± 0.3; in series [6] (setting [23]), 37.8 ± 0.2. Moreover, the antipyretic activity entry in series [6] (transdermal administration) is “did not show any antipyretic activity”.

The values above are taken from patent US11541029B2, “High penetration compositions and their applications” (Techfields Pharma Co., Ltd., priority 2008, dated 2023).
